Drawing on patent US20200255478A1, “NOVEL COMPOUNDS ACTIVATING THE NRF2 PATHWAY” (Almirall, S.A., priority 2017, published 2020), this text covers IC50 for 16 molecules.

pIC50: −log10 of the molar value. Starred links: 1 amine or outer side, 2 acyl side, 3 side chain; linkers in the order of their positions; H or OH if unused. Positions of bridges follow the written chain, without caps; N, C: chain ends. Non-standard residues stand in square brackets, D forms with d. Residues, ends and D or L forms follow the SMILES beside them. *: point of attachment. Trp(2-yl) = O=C([C@H](Cc1c([*:3])[nH]c2ccccc12)N[*:1])[*:2]; X1 = O=C([C@@H]1C[C@H](N[*:3])CN1[*:1])[*:2]; X3 = O=C([C@H](Cc1ccccc1[*:3])N[*:1])[*:2]; mXylylene = c1cc(C[*:1])cc(C[*:2])c1; oXylylene = c1ccc(C[*:2])c(C[*:1])c1; Stearoyl = CCCCCCCCCCCCCCCCCC(=O)*; pXylylene = c1cc(C[*:2])ccc1C[*:1]; βAla = NCCC(=O)O A value given as a limit tells only on which side of the number the result lay.

In the first experiment the target is Keap1-Maltose Binding Protein (MBP tag) (Homo sapiens, UniProt Q14145). Description: Nrf2-Keap1 HTRF (TR-FRET) binding assay: displacement of biotinylated ETGE peptide from Keap1-MBP.
Keap1-Maltose Binding Protein (MBP tag), sequence (Q14145 whole entry): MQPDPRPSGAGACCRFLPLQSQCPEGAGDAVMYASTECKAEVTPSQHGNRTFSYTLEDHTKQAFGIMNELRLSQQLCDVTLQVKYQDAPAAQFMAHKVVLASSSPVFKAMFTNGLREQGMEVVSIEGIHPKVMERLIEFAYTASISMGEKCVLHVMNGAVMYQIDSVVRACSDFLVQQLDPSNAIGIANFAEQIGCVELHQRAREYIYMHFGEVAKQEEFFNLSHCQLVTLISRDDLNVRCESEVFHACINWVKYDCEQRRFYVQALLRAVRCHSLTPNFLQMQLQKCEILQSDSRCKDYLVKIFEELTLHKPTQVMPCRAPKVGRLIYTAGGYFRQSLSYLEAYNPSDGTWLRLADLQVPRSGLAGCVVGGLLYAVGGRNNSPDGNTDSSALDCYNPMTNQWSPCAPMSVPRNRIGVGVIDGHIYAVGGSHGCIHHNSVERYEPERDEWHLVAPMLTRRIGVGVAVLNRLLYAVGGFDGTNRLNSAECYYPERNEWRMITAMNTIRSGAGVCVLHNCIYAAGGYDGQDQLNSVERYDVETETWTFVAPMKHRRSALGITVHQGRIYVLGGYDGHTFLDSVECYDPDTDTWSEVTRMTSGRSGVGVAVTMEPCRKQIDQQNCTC
Conditions: not given
A general note: TR-FRET usually uses a lanthanide donor and a delayed reading to cut background.
`CCCCCCCCCCCCCCCCCCCC(=O)N[C@H]1C[C@H]2C(=O)N[C@@H](CCC(N)=O)C(=O)N[C@H]3CSCc4ccccc4CSC[C@H](NC(=O)[C@H](CCC(=O)O)NC(=O)CNC(=O)[C@H]([C@@H](C)O)NC(=O)[C@H](CCC(=O)O)NC(=O)[C@@H]4CCCN4C(=O)[C@H](CC(=O)O)NC3=O)C(=O)N[C@@H](CC(C)C)C(=O)N3CCC[C@@H]3C(=O)N2C1` [Example 90, {[&^1Pro((4S)-NH-arachidyl)-Gln-Cys(&^2)-Asp-Pro-Glu-Thr-Gly-Glu-Cys(&^3)-Leu-D-Pro&^1][&^2(1,2-phenylenediyl)dimethylene&^3]}]: the negative-log IC50 (pIC50) (commonly the negative decadic logarithm of the IC50, by convention in mol/L) was more than 9.00.

As for `CCCCCCCCCCCCCCCCCC(=O)N[C@H]1C[C@H]2C(=O)N[C@@H](CCC(N)=O)C(=O)N[C@H]3CSCC4(CCOCC4)CSC[C@H](NC(=O)[C@H](CCC(=O)O)NC(=O)CNC(=O)[C@H]([C@@H](C)O)NC(=O)[C@H](CCC(=O)O)NC(=O)[C@@H]4CCCN4C(=O)[C@H](CC(=O)O)NC3=O)C(=O)N[C@@H](CC(C)C)C(=O)N3CCC[C@@H]3C(=O)N2C1` [Example 100, {[&^1Pro((4S)-NH-Stearyl)-Gln-Cys(&^2)-Asp-Pro-Glu-Thr-Gly-Glu-Cys(&^3)-Leu-D-Pro&^1][&^2(tetrahydro-2H-pyran-4,4-diyl)dimethylene&^3]}], the pIC50 was 7.00 to 9.00.

As for `CC(C)C[C@@H]1NC(=O)[C@@H]2CCCN2C(=O)[C@H](CC(C)C)NC(=O)[C@@H]2CSCc3cccc(c3)CSC[C@H](NC(=O)[C@H](CCC(N)=O)NC1=O)C(=O)N[C@@H](CC(=O)O)C(=O)N[C@@H](C)C(=O)N[C@@H](CCC(=O)O)C(=O)N[C@@H]([C@@H](C)O)C(=O)NCC(=O)N[C@@H](CCC(=O)O)C(=O)N2` [Example 17] (cyclo(AETGECLPLQCD); linker 6-11 via mXylylene), the pIC50 was 7.00 to 9.00.

`CCCCCCCC/C=C/CCCCCCCC(=O)N[C@H]1C[C@H]2C(=O)N[C@@H](CCC(N)=O)C(=O)N[C@H]3CSCc4ccccc4CSC[C@H](NC(=O)[C@H](CCC(=O)O)NC(=O)CNC(=O)[C@H]([C@@H](C)O)NC(=O)[C@H](CCC(=O)O)NC(=O)[C@@H]4CCCN4C(=O)[C@H](CC(=O)O)NC3=O)C(=O)N[C@@H](CC(C)C)C(=O)N3CCC[C@@H]3C(=O)N2C1` [Example 87, {[&^1Pro((4S)-NH-elaidyl)-Gln-Cys(&^2)-Asp-Pro-Glu-Thr-Gly-Glu-Cys(&^3)-Leu-D-Pro&^1][&^2(1,2-phenylenediyl)dimethylene&^3]}]: the negative logarithm of the IC50 (pIC50) was 7.00 to 9.00.

Turning to `CCCCCCCCCCCCCC(=O)N[C@H]1C[C@H]2C(=O)N[C@@H](CCC(N)=O)C(=O)N[C@H]3CSCc4ccccc4CSC[C@H](NC(=O)[C@H](CCC(=O)O)NC(=O)CNC(=O)[C@H]([C@@H](C)O)NC(=O)[C@H](CCC(=O)O)NC(=O)[C@@H]4CCCN4C(=O)[C@H](CC(=O)O)NC3=O)C(=O)N[C@@H](CC(C)C)C(=O)N3CCC[C@@H]3C(=O)N2C1` [Example 80, {[&^1Pro((4S)-NH-Miristoyl)-Gln-Cys(&^2)-Asp-Pro-Glu-Thr-Gly-Glu-Cys(&^3)-Leu-D-Pro&^1][&^2(1,2-phenylenediyl)dimethylene&^3]}], the negative-log IC50 (pIC50) was more than 9.00.

As to `CC(C)C[C@@H]1NC(=O)[C@@H]2CCCN2C(=O)[C@H](CC(C)C)NC(=O)[C@@H]2CSCc3ccc(cc3)CSC[C@H](NC(=O)[C@H](CCC(N)=O)NC1=O)C(=O)N[C@@H](CC(=O)O)C(=O)N[C@@H](CCC(=O)O)C(=O)N[C@@H](CCC(=O)O)C(=O)N[C@@H]([C@@H](C)O)C(=O)NCC(=O)N[C@@H](CCC(=O)O)C(=O)N2` [Example 5, {[&^1Leu-Gln-Cys(&^2)-Asp-Glu-Glu-Thr-Gly-Glu-Cys(&^3)-Leu-Pro&^1][&^2(1,4-phenylenediyl)dimethylene&^3]}] (cyclo(CDEETGECLPLQ); linker 1-8 via pXylylene), the negative-log IC50 (pIC50) is 7.00 to 9.00.

`CCCCCCCCCCCCCCCCCCCCCC(=O)N[C@H]1C[C@H]2C(=O)N[C@@H](CCC(N)=O)C(=O)N[C@H]3CSCc4ccccc4CSC[C@H](NC(=O)[C@H](CCC(=O)O)NC(=O)CNC(=O)[C@H]([C@@H](C)O)NC(=O)[C@H](CCC(=O)O)NC(=O)[C@@H]4CCCN4C(=O)[C@H](CC(=O)O)NC3=O)C(=O)N[C@@H](CC(C)C)C(=O)N3CCC[C@@H]3C(=O)N2C1` [Example 89, {[&^1Pro((4S)-NH-behenyl)-Gln-Cys(&^2)-Asp-Pro-Glu-Thr-Gly-Glu-Cys(&3)-Leu-D-Pro&^1][&^2(1,2-phenylenediyl)dimethylene&^3]}] had a negative logarithm of the IC50 (pIC50) of more than 9.00.

For the molecule `CC(C)C[C@H](NC(=O)[C@@H]1CSCc2c(F)c(F)c(F)c(F)c2CSC[C@H](NC(=O)[C@H](CCC(N)=O)NC(=O)[C@@H](N)CC(C)C)C(=O)N[C@@H](CC(=O)O)C(=O)N2CCC[C@H]2C(=O)N[C@@H](CCC(=O)O)C(=O)N[C@@H]([C@@H](C)O)C(=O)NCC(=O)N[C@@H](CCC(=O)O)C(=O)N1)C(=O)N1CCC[C@H]1C(=O)NCCC(=O)N[C@@H](CCCNC(=N)N)C(=O)N[C@@H](CCCCN)C(=O)N[C@@H](CCCCN)C(=O)N[C@@H](CCCNC(=N)N)C(=O)N[C@@H](CCCNC(=N)N)C(=O)N[C@@H](CCC(N)=O)C(=O)N[C@@H](CCCNC(=N)N)C(=O)N[C@@H](CCCNC(=N)N)C(=O)N[C@@H](CCCNC(=N)N)C(N)=O` [Example 56], the pIC50 is more than 9.00.

Take `CC(C)C[C@H](NC(=O)[C@@H]1CSc2[nH]c3ccccc3c2C[C@H](NC(=O)[C@H](CCC(N)=O)NC(=O)[C@@H](N)CC(C)C)C(=O)N[C@@H](CC(=O)O)C(=O)N[C@@H](CCC(=O)O)C(=O)N[C@@H](CCC(=O)O)C(=O)N[C@@H]([C@@H](C)O)C(=O)NCC(=O)N[C@@H](CCC(=O)O)C(=O)N1)C(=O)N1CCC[C@H]1C(=O)O` [Example 1, H-Leu-Gln-Trp(indol-2-yl-&^1)-Asp-Glu-Glu-Thr-Gly-Glu-Cys(&^1)-Leu-Pro-OH] (H-LQ[Trp(2-yl)]DEETGECLP-OH; thioether 3-10): the pIC50 is 7.00 to 9.00.

With `CCCCCCCCCCCCCCCCCC(=O)N[C@H]1C[C@H]2C(=O)N[C@@H](CCC(N)=O)C(=O)N[C@H]3CSCc4ccccc4CSC[C@H](NC(=O)[C@H](CCC(=O)O)NC(=O)CNC(=O)[C@H]([C@@H](C)O)NC(=O)[C@H](CCC(=O)O)NC(=O)[C@@H]4C[C@H](F)CN4C(=O)[C@H](CC(=O)O)NC3=O)C(=O)N[C@@H](CC(C)C)C(=O)N3CCC[C@@H]3C(=O)N2C1` [Example 72, {[&^1Pro((4S)-NH-Stearyl)-Gln-Cys(&^2)-Asp-Pro((4S)-F)-Glu-Thr-Gly-Glu-Cys(&^3)-Leu-D-Pro&^1][&^2(1,2-phenylenediyl)dimethylene&^2]}], the negative-log IC50 (pIC50) was 7.00 to 9.00.

Turning to `CCCCCCCCCCCCCCCCCCCC(=O)N[C@H]1C[C@H]2C(=O)N[C@@H](CCC(N)=O)C(=O)N[C@H]3CSCC4(COC4)CSC[C@H](NC(=O)[C@H](CCC(=O)O)NC(=O)CNC(=O)[C@H]([C@@H](C)O)NC(=O)[C@H](CCC(=O)O)NC(=O)[C@@H]4CCCN4C(=O)[C@H](CC(=O)O)NC3=O)C(=O)N[C@@H](CC(C)C)C(=O)N3CCC[C@@H]3C(=O)N2C1` [Example 95, {[&^1Pro((4S)-NH-Arachidyl)-Gln-Cys(&^2)-Asp-Pro-Glu-Thr-Gly-Glu-Cys(&^3)-Leu-D-Pro&^1][&^2(3,3-oxetanediyl)dimethylene&^3]}], the negative logarithm of the IC50 (pIC50) was more than 9.00.

For the molecule `CCCCCCCCCCCCCCCCCC(=O)N[C@H]1C[C@H]2C(=O)N[C@@H](CCC(N)=O)C(=O)N[C@H]3CSCc4ccccc4CSC[C@H](NC(=O)[C@H](CCC(=O)O)NC(=O)CNC(=O)[C@H]([C@@H](C)O)NC(=O)[C@H](CCC(=O)O)NC(=O)[C@@H]4CCCN4C(=O)[C@H](CC(=O)O)NC3=O)C(=O)N[C@@H](CCCCN)C(=O)N3CCC[C@@H]3C(=O)N2C1` [Example 82, {[&^1Pro((4S)-NH-Stearyl)-Gln-Cys(&^2)-Asp-Pro-Glu-Thr-Gly-Glu-Cys(&^3)-Lys-D-Pro&^1][&^2(1,2-phenylenediyl)dimethylene&^3]}] (cyclo(CDPETGECK[dP][X1](Stearoyl)Q); linker 1-8 via oXylylene), the pIC50 is 7.00 to 9.00.

Still in this experiment, the particulars now being: HTRF (TR-FRET); displacement of ETGE-biotin from Keap1-MBP; values banded into grades; read-out: Binding (IC50) ETGE-Keap1.
With `CCCCCCCCCCCCCCCCCC(=O)N[C@H]1C[C@H]2C(=O)N[C@@H](CCC(N)=O)C(=O)N[C@H]3CSCc4ccccc4CSC[C@H](NC(=O)[C@H](CCC(=O)O)NC(=O)CNC(=O)[C@H]([C@@H](C)O)NC(=O)[C@H](CCC(=O)O)NC(=O)[C@@H]4CSCN4C(=O)[C@H](CC(=O)O)NC3=O)C(=O)N[C@@H](CC(C)C)C(=O)N3CCC[C@@H]3C(=O)N2C1` [Example 78, {[&^1Pro((4S)-NH-Stearyl)-Gln-Cys(&^2)-Asp-Thz-Glu-Thr-Gly-Glu-Cys(&^3)-Leu-D-Pro&^1][&^2(1,2-phenylenediyl)dimethylene&^3]}], the pIC50 was more than 9.00.

For `CCCCCCCCCCCCCCCCCC(=O)NCCC(=O)N[C@H]1CSCc2ccccc2CSC[C@@H](C(N)=O)NC(=O)[C@H](CCC(=O)O)NC(=O)CNC(=O)[C@H]([C@@H](C)O)NC(=O)[C@H](CCC(=O)O)NC(=O)[C@H](C)NC(=O)[C@H](CC(=O)O)NC1=O` [Example 28, {[Stearyl-βAla-Cys(&^1)-Asp-Ala-Glu-Thr-Gly-Glu-Cys(&^2)-NH2][&^1(1,2-phenylenediyl)dimethylene&^2]}], the pIC50 was 7.00 to 9.00.

Consider `CCCCCCCCCCCCCCCCCC(=O)NCCC(=O)N[C@@H](CC(C)C)C(=O)N[C@@H](CCC(N)=O)C(=O)N[C@H]1CSCc2ccccc2CSC[C@@H](C(=O)N[C@@H](CC(C)C)C(=O)N2CCC[C@H]2C(=O)O)NC(=O)[C@H](CCC(=O)O)NC(=O)CNC(=O)[C@H]([C@@H](C)O)NC(=O)[C@H](CCC(=O)O)NC(=O)[C@@H]2CCCN2C(=O)[C@H](CC(=O)O)NC1=O` [Example 35, {[Stearyl-βAla-Leu-Gln-Cys(&^1)-Asp-Pro-Glu-Thr-Gly-G1u-Cys(&^2)-Leu-Pro-OH][&^1(1,2-phenylenediyl)dimethylene&^2]}] ({Stearoyl-βAla}-LQCDPETGECLP-OH; linker 3-10 via oXylylene), for which the negative-log IC50 (pIC50) is 7.00 to 9.00.

On to `CC(=O)N[C@H]1Cc2ccccc2SC[C@@H](C(N)=O)NC(=O)[C@H](CCC(=O)O)NC(=O)CNC(=O)[C@H]([C@@H](C)O)NC(=O)[C@H](CCC(=O)O)NC(=O)[C@H](CCC(=O)O)NC(=O)[C@H](CC(=O)O)NC1=O` [Example 23, Acetyl-Phe(o-&^1)-Asp-Glu-Glu-Thr-Gly-Glu-Cys(&^1)-NH2] (Ac-[X3]DEETGEC-NH2; thioether 1-8), for which the negative-log IC50 (pIC50) is 7.00 to 9.00.
